Like-named read-outs stand apart in the source and are kept apart here.
How the values were obtained:
[1] = pKa by potentiometric titration (Sirius T3); assay type: physicochemical
Protocol: In addition to gaining an understanding about the metal coordinating properties of the salicylate MBIs by using [(Tp^Ph,Me)Zn(MBI)] model complexes, the physicochemical properties of the MBIs were also studied.
(§1) Physicochemical properties were determined using a Sirius T3 instrument.[23–25] […] The pKa of a compound was determined by analysing each MBI sample in triplicate using potentiometric titrations. Experiments were typically performed over a pH range of 2.0–12.0. Standard deviations were derived from fitting all three replicate experiments. For water insoluble compounds methanol was added and the obtained apparent pKa (psKa) was extrapolated to the aqueous pKa by the Yasuda–Shedlovsky procedure. log P was determined via potentiometric titrations in the presence of varying ratios of octanol and water. The presence of octanol shifts the pKa of ionizable species, and based on the shifts, a log P can be determined. Measurements for log P determination were typically performed over a pH range of 2.0–12.0. Three experiments with varying ratios of water:octanol was performed, allowing for a standard deviation to be determined from the fitting of all measurements. MBI sample sizes were ∼0.5 mg for both pKa and log P measurements.

[2] = log P by potentiometric titration octanol/water (Sirius T3); log D7.4 calculated from pKa and log P; assay type: physicochemical; details: for logD: pH 7.4
Protocol: In addition to gaining an understanding about the metal coordinating properties of the salicylate MBIs by using [(Tp^Ph,Me)Zn(MBI)] model complexes, the physicochemical properties of the MBIs were also studied. The acidity (pKa) and lipophilicity (log P) were measured using potentiometric methods and the lipophilicity at physiological pH (log D7.4) was calculated from these two values (Table 1).[23–25]
as §1

[3] = target: T1, Recombinant human glyoxalase I (GLO1) (Homo sapiens, UniProt Q04760); assay: GLO1 enzyme inhibition assay (absorbance at 240 nm); assay type: biochemical; details: for inhibition at 100 µM: read-out: %inhib GLO1; for IC50: dose-response curves, read-out: IC50 against GLO1
T1 construct: purchased R&D Systems 4959-GL
T1 sequence (Q04760 2-184 limits assumed): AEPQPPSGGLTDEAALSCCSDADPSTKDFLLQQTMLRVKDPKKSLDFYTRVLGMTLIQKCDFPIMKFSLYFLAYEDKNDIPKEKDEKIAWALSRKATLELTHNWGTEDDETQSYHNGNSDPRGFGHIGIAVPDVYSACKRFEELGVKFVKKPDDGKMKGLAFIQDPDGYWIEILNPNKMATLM
Protocol: To evaluate if the salicylate MBIs could serve as starting points for future FBDD campaigns, the MBI library was screened for inhibitory activity against human glyoxalase I (GLO1) at fragment concentrations of 100 μM (Table 2). […] Recombinant human glyoxalase I (GLO1) was purchased from R&D Systems (catalog #4959-GL). Assays were carried out in 0.1 M sodium phosphate, pH 7.0 buffer, utilizing 96-well clear UV plates (Corning UV Transparent Microplates, catalog #3635). A fresh solution of GSH (100 mM) and methylglyoxal (MG) (100 mM) was prepared in Millipore grade water. […] The substrate mixture was vortexed vigorously for 45 s and then allowed to sit at room temperature for 15 min. The initial well volume was 50 μL containing GLO1 (40 ng) and inhibitor. This protein and inhibitor mixture was incubated for 15–20 min prior to addition of the substrate. […] The enzyme activity was measured utilizing a Biotek Synergy HT or H4 plate reader by measuring absorbance at 240 nm every 1 min for a duration of 8 min. The rate of absorbance increase was compared for samples versus controls containing no inhibitor (set at 100% activity). The absorbance reading for background wells containing DMSO, buffer, and substrate (no enzyme or inhibitor) was subtracted from the experimental wells. […] Dose-response curves were generated, analysed and fitted to obtain IC50 values (see ESI ^†).
5. Single Point screening
Single point screening of salicylate MBI library against GLO1 at 100 µM inhibitor concentration. Chugai 1 (4,6-diphenyl-N-hydroxypyridone) 4 as positive control. […]
6. Dose-response curves against GLO1
The raw data from the GLO1 assay was background corrected and normalized from 0 to 100 with 100 being the largest mean of each dataset. A variable slope log-logistic model was chosen for curve fitting.
The corresponding datapoints are shown as empty bullets and were not included in the curve-fitting. The resulting restricted datasets were fitted according to a literature procedure setting the lower limit of the dose-response curve to zero. This compensates for the loss of information caused by trimming of the dataset. 5,6
Figure S7. Dose-response curve of 11 against GLO1.

[4] = target: T2, Human recombinant MMP-3 catalytic domain (Homo sapiens, UniProt P08254); assay: MMP-3 enzyme inhibition assay (chromogenic substrate, 412 nm); assay type: biochemical; details: standard deviation in parentheses, read-out: %inhib MMP-3
T2 construct: Human recombinant MMP-3 catalytic domain was purchased; purchased ENZO Life Sciences BML-SE109-9090
T2 sequence (P08254 100-272 limits assumed): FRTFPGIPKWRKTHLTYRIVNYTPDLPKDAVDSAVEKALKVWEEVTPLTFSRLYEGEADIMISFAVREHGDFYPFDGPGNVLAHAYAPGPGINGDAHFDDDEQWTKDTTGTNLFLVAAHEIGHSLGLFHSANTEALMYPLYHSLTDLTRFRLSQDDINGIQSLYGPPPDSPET
Protocol: To probe the selectivity of the salicylate MBIs, the library was screened against matrix metalloproteinase-3 (MMP-3) at fragment concentrations of 100 μM (Table 2).
Human recombinant MMP-3 catalytic domain was purchased from ENZO Life Sciences (catalog # BML-SE109-9090). Assays were carried out in clear Costar 96-well, half-area, flat-bottom assay plates (catalog # 80-2404). Each well contained a total volume of 100 μL including buffer (50 mM MES, 10 mM CaCl2, 0.05% Brij-35, 1 mM DNTB, pH 6.0), MMP-3 (2 U), and the fragment solution. After a 30 min incubation period at 37 °C, the reaction was initiated by the addition of 10 μL of chromogenic MMP-3 substrate (100 μM final concentration, Ac-Pro-Leu-Gly-[2-mercap-to-4-methyl-pentanoyl]-Leu-Gly-OC2H5, ENZO Life Sciences, catalog #BML-P125-0005). Absorbance was monitored at 412 nm using a Bio-Tek ELx 808 colorimetric plate reader, and measurements were recorded every minute for 10 min. The rate of absorbance increase was compared for samples versus negative controls (no inhibitor, arbitrarily set as 100% activity).
5. Single Point screening […]
Figure S5. Single point screening of salicylate MBI library against MMP-3 at 100 µM inhibitor
concentration. NNGH as positive control.

[5] = system: influenza H1N1 N-terminal PA endonuclease (PAN); assay: PAN endonuclease inhibition assay (fluorescent ssDNA-oligo substrate); assay type: biochemical; details: 100 μM; standard deviation in parentheses
[6] = 100 μM, standard deviation in parentheses
[7] = potentiometric, 0.15 M KCl, triplicate, read-out: pKa (pKa,1)
[8] = calculated from measured pKa and log P, read-out: log D7.4
[9] = potentiometric, octanol/water, read-out: log P

SMILES	pKa ([1]; pKa (pKa,1))	logP [2]	logD [2]	inhibition at 100 µM [3, 6] [%]	inhibition at 100 µM [4] [%]	%inhib Endo (PAN) [5]	other results
O=C(O)c1cccc2nc[nH]c12 [Compound 4]	3.04	-1.4	-2.09	38	3	0%	pKa ([1]; pKa): 5.49; pKa ([1]; pKa (third printed value)): 12.8
Oc1ccc(-c2ccoc2)cc1-c1nc2ccccc2s1 [Compound 11g]	–	–	–	–	–	–	IC50 [3]: 6.9 ± 2.8 µM
OC1(c2cccc3nc[nH]c23)COC1 [Compound 23]	–	–	–	10	4	22 (8) %	–
CS(=O)(=O)Nc1ccccc1-c1ncccn1 [Compound 25]	–	–	–	19	0	21 (8) %	–
Oc1ccccc1-c1nnn[nH]1 [Compound 8]	4.63	1.54	-0.46	24	6	–	pKa ([1]; pKa): 10.9
COC(=O)c1ccccc1O [Compound 6]	9.8	2.19	2.19	10	0	21 (6) %	–
c1cc(-c2nnn[nH]2)c2[nH]cnc2c1 [Compound 22]	–	–	–	50	74	–	–
CONC(=O)c1cccc2oc(=O)[nH]c12 [Compound 17]	7.58	0.4	0.18	33	0	23 (6) %	pKa ([1]; pKa): 12.5
COC(=O)c1ccccc1NS(C)(=O)=O [Compound 12]	–	–	–	–	12	33 (11) %	pKa [1, 7]: 8.86; logD [2, 8]: 1.49; logP [2, 9]: 1.51; inhibition at 100 µM [3]: 18%
Oc1ccc(N2CCCCC2)cc1-c1nc2ccccc2s1 [Compound 11d]	–	–	–	–	–	–	IC50 [3]: > 20 µM
Oc1ccc(-c2cccc(Cl)c2)cc1-c1nc2ccccc2s1 [Compound 11c]	–	–	–	–	–	–	IC50 [3]: 3.3 ± 0.7 µM
CS(=O)(=O)Nc1ccccc1-c1nnn[nH]1 [Compound 20]	–	–	–	–	3	43 (4) %	pKa ([1]; potentiometric, 0.15 M KCl, triplicate, read-out: pKa): 9.52; pKa [1, 7]: 3.62; logD [2, 8]: -0.43; logP [2, 9]: 1.18; inhibition at 100 µM [3]: 10%
CONC(=O)c1ccccc1O [Compound 7]	7.23	0.85	0.49	22	0	46 (8) %	pKa ([1]; pKa): 12
COC(=O)c1cccc2oc(=O)[nH]c12 [Compound 13]	8.78	1.24	1.22	31	0	46 (7) %	–
Oc1ccccc1C1(O)COC1 [Compound 9]	9.38	0.43	0.42	9	0	17 (9) %	–
Oc1ccc(N2CCCC2)cc1-c1nc2ccccc2s1 [Compound 11f]	–	–	–	–	–	–	IC50 [3]: 4.4 ± 1.8 µM
Cc1cccc(-c2ccc(O)c(-c3nc4ccccc4s3)c2)c1 [Compound 11b]	–	–	–	–	–	–	IC50 [3]: 6.8 ± 1.4 µM
COC(=O)c1cccc2nc[nH]c12 [Compound 14]	4.51	1.73	1.73	19	7	37 (5) %	pKa ([1]; pKa): 12.3
O=C(O)c1cccc2oc(=O)[nH]c12 [Compound 3]	3.65	1.28	-2.47	29	0	11 (7) %	pKa ([1]; pKa): 10.3
O=c1cc(-c2ccccc2)cc(-c2ccccc2)n1O [1-hydroxy-4,6-diphenylpyridin-2(1H)-one, reference compound]	–	–	–	–	–	–	GLO1 inhibition by positive control ([3]; 50 μM): complete inhibition
O=c1[nH]c2c(-c3nnn[nH]3)cccc2o1 [Compound 21]	–	–	–	39	0	0%	–
Oc1ccc(-c2ccccc2)cc1-c1nc2ccccc2s1 [Compound 11a]	–	–	–	–	–	–	IC50 [3]: 5 ± 1.5 µM
Oc1ccc(N2CCOCC2)cc1-c1nc2ccccc2s1 [Compound 11e]	–	–	–	–	–	–	IC50 [3]: > 50 µM
Oc1ccccc1-c1ncccn1 [Compound 10]	–	–	–	15	0	–	–
OC1(c2cccc3nn[nH]c23)COC1 [Compound 24]	–	–	–	19	0	32 (8) %	–
